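1) Cells in 96-well plates. 2) Compound, 48 h, 5 concentrations. 3) Linear interpolation between surrounding doses. 4) Unreached endpoint = highest concentration. Here, GI50 denotes the concentration required for 50% inhibition of growth. TGI is the concentration that stops growth completely.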
Tests used:
Assay in all cases: NCI anticancer screen, dose series, 48 h; in the data active means GI50 below about 0.43 µM; inactive means the rest
786-0 renal = test system: 786-0 renal
A498 renal = test system: A498 renal
A549 NSCLC = test system: A549 NSCLC
ACHN renal = test system: ACHN renal
BT-549 breast = test system: BT-549 breast
CCRF-CEM leukemia = test system: CCRF-CEM leukemia
COLO 205 colon = test system: COLO 205 colon
DU-145 prostate = test system: DU-145 prostate
EKVX NSCLC = test system: EKVX NSCLC
HCC-2998 colon = test system: HCC-2998 colon
HCT-116 colon = test system: HCT-116 colon
HCT-15 colon = test system: HCT-15 colon
HL-60(TB) leukemia = test system: HL-60(TB) leukemia
HOP-62 NSCLC = test system: HOP-62 NSCLC
HOP-92 NSCLC = test system: HOP-92 NSCLC
HS 578T breast = test system: HS 578T breast
HT29 colon = test system: HT29 colon
IGROV1 ovarian = test system: IGROV1 ovarian
K-562 leukemia = test system: K-562 leukemia
KM12 colon = test system: KM12 colon
LOX IMVI melanoma = test system: LOX IMVI melanoma
M14 melanoma = test system: M14 melanoma
MALME-3M melanoma = test system: MALME-3M melanoma
MCF7 breast = test system: MCF7 breast
MDA-MB-231 breast = test system: MDA-MB-231 breast
MDA-MB-435 = test system: MDA-MB-435
MDA-MB-468 breast = test system: MDA-MB-468 breast
MOLT-4 leukemia = test system: MOLT-4 leukemia
NCI-H226 lung = test system: NCI-H226 lung
NCI-H23 lung = test system: NCI-H23 lung
NCI-H460 lung = test system: NCI-H460 lung
NCI-H522 lung = test system: NCI-H522 lung
NCI/ADR-RES ovarian = test system: NCI/ADR-RES ovarian
OVCAR-3 ovarian = test system: OVCAR-3 ovarian
OVCAR-4 ovarian = test system: OVCAR-4 ovarian
OVCAR-5 ovarian = test system: OVCAR-5 ovarian
OVCAR-8 ovarian = test system: OVCAR-8 ovarian
PC-3 prostate = test system: PC-3 prostate
RPMI-8226 leukemia = test system: RPMI-8226 leukemia
RXF 393 renal = test system: RXF 393 renal
SF-268 CNS = test system: SF-268 CNS
SF-295 CNS = test system: SF-295 CNS
SF-539 CNS = test system: SF-539 CNS
SK-MEL-2 melanoma = test system: SK-MEL-2 melanoma
SK-MEL-28 melanoma = test system: SK-MEL-28 melanoma
SK-MEL-5 melanoma = test system: SK-MEL-5 melanoma
SK-OV-3 ovarian = test system: SK-OV-3 ovarian
SN12C renal = test system: SN12C renal
SNB-19 CNS = test system: SNB-19 CNS
SNB-75 CNS = test system: SNB-75 CNS
SR leukemia = test system: SR leukemia
SW-620 colon = test system: SW-620 colon
T-47D breast = test system: T-47D breast
TK-10 renal = test system: TK-10 renal
U251 CNS = test system: U251 CNS
UACC-257 melanoma = test system: UACC-257 melanoma
UACC-62 melanoma = test system: UACC-62 melanoma
UO-31 renal = test system: UO-31 renal

Cc1cc(C(NC(=O)C2CC3(CC(Nc4cccc5c4C(=O)N(C4CCC(=O)NC4=O)C5=O)C3)C2)c2ccc3c(c2)OC(F)(F)O3)c(O)c2ncccc12 (stereo not drawn)
562 nM: TGI (SK-MEL-5 melanoma)
> 42700 nM: TGI (MDA-MB-231 breast)
> 30700 nM: TGI (RXF 393 renal)
2660 nM: TGI (M14 melanoma)
inactive: GI50 (786-0 renal) 452 nM | GI50 (A498 renal) > 100000 nM | GI50 (COLO 205 colon) 437 nM | GI50 (DU-145 prostate) 461 nM | GI50 (HS 578T breast) 433 nM | GI50 (HT29 colon) 474 nM | GI50 (KM12 colon) 468 nM | GI50 (MALME-3M melanoma) 522 nM | GI50 (MDA-MB-231 breast) 440 nM | GI50 (MDA-MB-468 breast) 473 nM | GI50 (NCI-H226 lung) 434 nM | GI50 (NCI/ADR-RES ovarian) 1600 nM | GI50 (OVCAR-4 ovarian) 476 nM | GI50 (OVCAR-5 ovarian) 447 nM | GI50 (RXF 393 renal) 502 nM | GI50 (SW-620 colon) 531 nM | GI50 (TK-10 renal) 474 nM | GI50 (UACC-257 melanoma) 718 nM
15300 nM: TGI (NCI/ADR-RES ovarian)
> 22300 nM: TGI (SK-OV-3 ovarian)
> 100000 nM: TGI (786-0 renal) | TGI (A498 renal) | TGI (A549 NSCLC) | TGI (ACHN renal) | TGI (BT-549 breast) | TGI (CCRF-CEM leukemia) | TGI (COLO 205 colon) | TGI (DU-145 prostate) | TGI (HCT-116 colon) | TGI (HCT-15 colon) | TGI (HOP-62 NSCLC) | TGI (HOP-92 NSCLC) | TGI (HS 578T breast) | TGI (HT29 colon) | TGI (K-562 leukemia) | TGI (KM12 colon) | TGI (MCF7 breast) | TGI (MDA-MB-435) | TGI (MOLT-4 leukemia) | TGI (NCI-H460 lung) | TGI (NCI-H522 lung) | TGI (OVCAR-3 ovarian) | TGI (OVCAR-4 ovarian) | TGI (OVCAR-5 ovarian) | TGI (OVCAR-8 ovarian) | TGI (PC-3 prostate) | TGI (RPMI-8226 leukemia) | TGI (SF-268 CNS) | TGI (SF-295 CNS) | TGI (SK-MEL-2 melanoma) | TGI (SK-MEL-28 melanoma) | TGI (SN12C renal) | TGI (SNB-19 CNS) | TGI (SNB-75 CNS) | TGI (SR leukemia) | TGI (SW-620 colon) | TGI (T-47D breast) | TGI (TK-10 renal) | TGI (U251 CNS) | TGI (UACC-257 melanoma)
1140 nM: TGI (UACC-62 melanoma)
> 23900 nM: TGI (NCI-H226 lung)
5540 nM: TGI (NCI-H23 lung)
> 32300 nM: TGI (IGROV1 ovarian)
2290 nM: TGI (UO-31 renal)
> 25400 nM: TGI (MALME-3M melanoma)
> 40600 nM: TGI (EKVX NSCLC)
active: GI50 (A549 NSCLC) 418 nM | GI50 (ACHN renal) 359 nM | GI50 (BT-549 breast) 224 nM | GI50 (CCRF-CEM leukemia) 390 nM | GI50 (EKVX NSCLC) 349 nM | GI50 (HCC-2998 colon) 340 nM | GI50 (HCT-116 colon) 420 nM | GI50 (HCT-15 colon) 307 nM | GI50 (HL-60(TB) leukemia) 314 nM | GI50 (HOP-62 NSCLC) 392 nM | GI50 (HOP-92 NSCLC) 382 nM | GI50 (IGROV1 ovarian) 313 nM | GI50 (K-562 leukemia) 334 nM | GI50 (LOX IMVI melanoma) 272 nM | GI50 (M14 melanoma) 411 nM | GI50 (MCF7 breast) 303 nM | GI50 (MDA-MB-435) 426 nM | GI50 (MOLT-4 leukemia) 344 nM | GI50 (NCI-H23 lung) 352 nM | GI50 (NCI-H460 lung) 198 nM | GI50 (NCI-H522 lung) 399 nM | GI50 (OVCAR-3 ovarian) 376 nM | GI50 (OVCAR-8 ovarian) 364 nM | GI50 (PC-3 prostate) 275 nM | GI50 (RPMI-8226 leukemia) 350 nM | GI50 (SF-268 CNS) 420 nM | GI50 (SF-295 CNS) 275 nM | GI50 (SF-539 CNS) 378 nM | GI50 (SK-MEL-2 melanoma) 375 nM | GI50 (SK-MEL-28 melanoma) 405 nM | GI50 (SK-MEL-5 melanoma) 226 nM | GI50 (SK-OV-3 ovarian) 344 nM | GI50 (SN12C renal) 349 nM | GI50 (SNB-19 CNS) 350 nM | GI50 (SNB-75 CNS) 289 nM | GI50 (SR leukemia) 340 nM | GI50 (T-47D breast) 393 nM | GI50 (U251 CNS) 210 nM | GI50 (UACC-62 melanoma) 282 nM | GI50 (UO-31 renal) 295 nM
3180 nM: TGI (SF-539 CNS)
3130 nM: TGI (MDA-MB-468 breast)

From PubChem BioAssay (NCI)
